Measurements taken from PubChem BioAssay (NCI).
Several values for one entry are separate records, joined by “and”; a condition that tells them apart may be missing. Equal values may be shown once.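 Each compound was tested at five concentrations against cells in 96-well plates for 48 hours. GI50 is the concentration that inhibits growth by half. The concentration for full growth arrest is given as TGI.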

Legend:
Test in all cases: NCI tumour cell line growth inhibition, 48 h
XF 498 CNS = test system: XF 498 CNS
HOP-18 NSCLC = test system: HOP-18 NSCLC
LXFL 529 NSCLC = test system: LXFL 529 NSCLC
SNB-78 CNS = test system: SNB-78 CNS
DMS 114 small cell lung = test system: DMS 114 small cell lung
DLD-1 colon = test system: DLD-1 colon
M19-MEL melanoma = test system: M19-MEL melanoma
P388/ADR leukemia = test system: P388/ADR leukemia
SN12K1 renal = test system: SN12K1 renal
P388 leukemia = test system: P388 leukemia
RXF-631 renal = test system: RXF-631 renal

Structure (SMILES)	TGI (XF 498 CNS)	TGI (HOP-18 NSCLC)	TGI (LXFL 529 NSCLC)	TGI (SNB-78 CNS)	TGI (DMS 114 small cell lung)	TGI (DLD-1 colon)	TGI (M19-MEL melanoma)	TGI (P388/ADR leukemia)	TGI (SN12K1 renal)	TGI (P388 leukemia)	TGI (RXF-631 renal)	GI50 (RXF-631 renal)	GI50 (SNB-78 CNS)	GI50 (M19-MEL melanoma)	GI50 (DMS 114 small cell lung)
COc1ccc(CN(CCN(C)C)c2ccccn2)cc1 (tested in a mixture with another compound)	> 100 µM	> 100 µM	> 100 µM	> 100 µM	> 100 µM	> 100 µM									
COC1(OC)CC2C(=O)N(Cc3ccccc3)C1C(S(=O)(=O)c1ccccc1)C2C(C)S(=O)(=O)c1ccccc1 (stereo not given)	> 100 µM	> 100 µM	> 100 µM	> 100 µM	> 100 µM	> 100 µM	> 100 µM								
CC1(CO)C(O)CCC2(C)C1CCC1CC3CC12CCC3(O)CO (stereo not given)	> 100 µM	> 100 µM		> 100 µM	> 100 µM	> 100 µM	> 100 µM	12.6 µM	> 100 µM	6.66 µM					
CC(=O)Nc1ccc(-c2nnc(SCC(=O)Nc3cccc(C)c3)o2)cc1		29.7 µM	22.8 µM	31.1 µM	6.94 µM	23.1 µM	24.9 µM								
CCC(=O)OC1CCn2c1nc1c2C(=O)C(C)=C(NC(C)=O)C1=O (stereo not given)			2.72 µM	4.35 µM	1.62 µM	3.96 µM	3.31 µM								
C[N+]1=C(c2cccnc2/C=N/O)OCC1(C)C	> 100 µM	> 100 µM	> 100 µM	> 100 µM	> 100 µM	> 100 µM	> 100 µM								
CC(=O)c1ccc(N2C(=O)C3c4[nH]c5ccccc5c4C4CCC(C(C)(C)C)CC4C3C2=O)cc1 (stereo not given)		> 100 µM	> 100 µM	74.9 µM	59.8 µM	> 100 µM	42.1 µM								
Cc1ccc2nc(N)[nH]c(=O)c2c1Sc1ccncc1	> 100 µM	> 100 µM	> 100 µM	> 100 µM	> 100 µM	> 100 µM	> 100 µM								
CCOC(=O)/C=C/n1c2ccccc2c(=O)c2cc(OC)ccc21	> 100 µM	> 100 µM	> 100 µM		> 100 µM	> 100 µM	> 100 µM				> 100 µM				
Cc1ccc(S(=O)(=O)NC(=O)C2S(=O)(=O)OCCOS2(=O)=O)cc1	> 100 µM		> 100 µM	> 100 µM		> 100 µM	> 100 µM				> 100 µM				
O=C1NC(=O)C(C(=O)C(=O)Nc2cc(Cl)ccc2Cl)C(=O)N1			> 100 µM	> 100 µM	> 100 µM	> 100 µM	> 100 µM				> 100 µM				
CCCCn1c(-c2ccccc2)cs/c1=N\N=C1C=C(C(C)(C)C)C(=O)C(C(C)(C)C)=C1	> 100 µM		> 100 µM		> 100 µM		> 100 µM				> 100 µM				
N#C/C(=C\c1ccc(O)c(O)c1)c1c(C#N)c(N)nn1-c1ccccc1		29.1 µM	92.5 µM	> 100 µM		> 100 µM	94.6 µM								
CCN(CC)CCNc1c2ccccc2nc2cccc([N+](=O)[O-])c12	0.0569 µM and 0.0196 µM		0.0843 µM	0.13 µM	0.0935 µM and 0.0335 µM		0.0409 µM				0.0332 µM	0.0107 µM	0.023 µM	0.0156 µM	0.0117 µM
O=C(Nc1ccccc1[N+](=O)[O-])/C(=N/Nc1cccc(Cl)c1)c1c(O)c2ccccc2oc1=O		> 100 µM	> 100 µM		53.8 µM	> 100 µM	> 100 µM								
O=C(NN1C(=O)C(Cl)C1c1cccc(O)c1)c1ccccc1O (stereo not given)	> 100 µM	> 100 µM	> 100 µM	> 100 µM	> 100 µM	> 100 µM	> 100 µM								
CC1CC(=O)Nc2ccc(Cl)cc2N1C(=O)CN1CCC(CCCCN(C)C)CC1 (stereo not given)		> 100 µM	> 100 µM		> 100 µM	> 100 µM					> 100 µM				
CC(C)OP(=O)(OC(C)C)C(=NCCO)NNc1ccc([N+](=O)[O-])cc1	> 100 µM		> 100 µM	> 100 µM	> 100 µM	> 100 µM	> 100 µM								
